According to patent publication US6534501B2, “Allosteric inhibitors of pyruvate kinase” (Allos Therapeutics, Inc., priority 1998, dated 2003):

Legend:
[1] = target: T1, Human Erythrocyte Pyruvate Kinase (R-PK) (Homo sapiens, UniProt P30613); experiment: PK activity assay coupled with lactate dehydrogenase (NADH oxidation at 340 nm); format: biochemical; details: for IC50: stock solutions in DMSO, dose-response of FIG. 6, read-out: IC50 (R-PK inhibition)
T1 construct: The four units of human whole blood obtained from the Blood Bank; from tissue
T1 sequence (P30613 whole entry): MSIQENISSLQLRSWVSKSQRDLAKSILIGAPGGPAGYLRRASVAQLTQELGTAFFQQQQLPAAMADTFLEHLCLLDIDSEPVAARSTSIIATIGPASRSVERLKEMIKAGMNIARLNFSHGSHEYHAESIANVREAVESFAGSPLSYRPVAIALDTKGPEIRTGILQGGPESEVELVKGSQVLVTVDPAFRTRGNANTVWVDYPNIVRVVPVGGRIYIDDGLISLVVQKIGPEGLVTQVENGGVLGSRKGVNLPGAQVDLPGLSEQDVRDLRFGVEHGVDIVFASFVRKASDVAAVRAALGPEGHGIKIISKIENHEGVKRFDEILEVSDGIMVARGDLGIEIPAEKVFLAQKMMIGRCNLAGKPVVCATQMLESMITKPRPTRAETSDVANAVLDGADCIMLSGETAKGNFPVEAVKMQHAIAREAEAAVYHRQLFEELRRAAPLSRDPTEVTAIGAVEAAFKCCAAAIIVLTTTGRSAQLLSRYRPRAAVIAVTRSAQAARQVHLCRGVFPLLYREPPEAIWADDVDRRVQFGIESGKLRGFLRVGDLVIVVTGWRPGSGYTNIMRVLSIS
Method: PK activity was measured using the assay conditions that are recommended by the International Committee for Standardization in Hematology (ICSH). […] The positive cooperativity of substrate binding is clearly seen from the upward curvature in the Lineweaver plot. The experimental data were fit to the Hill equation. The derived parameters were K0.5S=2.37 mM and Hill coefficient (nH) of 1.41.
Phenlyalanine has long been known as an allosteric inhibitor of PK. […] It can be seen from FIG. 2 that an increase in the concentration of phenlyalanine results in a decreased affinity and a more pronounced sigmoidity of the substrate binding. When phenylalanine increases from 0 to 30 mM, the K0.5S increases by 2.5 folds and nH increases by 1.4 folds, respectively. To avoid fluctuations in measurement of PK parameters, all experiments reported herein and assays were performed using the same batch of preparation and under identical conditions.
PK activity is measured by coupling it with lactate dehydrogenase, which transforms pyruvate into lactate and oxidizes NADH into NAD. A reduction of oxidation of NADH is followed at 340 nm using the 96 well plate in a Spectramax spectrophotometer (Molecular Devices, Ca.).
The assay buffer (100 mM Tris pH 7.5) was prepared by dissolving TRIS 100 mM, KCl 100 mM, EDTA 0.5 mM, and 10 MM MgCl2 in deionized water. The pH of the solution was adjusted to 7.5 by adding a small amount of TRIS. The stock solution of NADH (20 mM), ADP 100 mM (neutralized), LDH 500 IU/ml and PEP 100 mM were prepared in the assay buffer. The following quantities of reagents were added to make 1 ml of assay solution.
The contents were mixed and incubated for five minutes at 37° C. Then, 50 μl of PEP was added and the absorbance changes were followed at 340 nm. The initial reaction velocity in AU/min was then calculated.
The control samples in each experiment were incubated under the same conditions as without any compound. In all cases, the experiments were begun after saturation with PEP. The percent inhibition of PK activity was calculated by subtracting the activity of the control sample from the activity in the presence of compound.
Compounds 4(1) through 4(12) thus obtained were tested.
The percent activity values presented in FIG. 5 represent an average of six independent experiments. All examined compounds were prepared as stock solutions in DMSO.
As a control for FIG. 5, the assay was performed with DMSO, but no compound.
Otherwise, the dose-response for R-PK in FIG. 5 in this Example 5 was performed as described in the above Examples.

[2] = compound concentration 0.5 mM, pH 7.5, 37° C., after saturation with PEP
[3] = compound concentration 2 mM, pH 7.5, 37° C., after saturation with PEP
[4] = phenylalanine increases from 0 to 30 mM

Molecule: 2-(9-Ethyl-9H-carbazol-3-ylvinylideneamino)-1-(4-nitrobenzoate) [(5)]
- IC50 [1]: 17.4 µM

Molecule: 2-phenylethyloxy-5-formylbenzoic acid [TB 32]
- % PK Inhibition [1, 2]: 48%
- % PK Inhibition [1, 3]: 77%
- % PK Inhibition ([1]; compound concentration 3 mM, pH 7.5, 37° C., after saturation with PEP): 80%

Molecule: 3-(2-{1-(3-Chlorophenyl)-1(3-hydroxyphenyl)-ureido]-ethyl}-4-oxo-4H-quinazolin-3-yl)-propionic acid [(4)]
- IC50 [1]: 16.1 µM

Molecule: CCCCN(Cc1c2ccccc2c(Cl)c2ccccc12)C(=O)NCC(=O)OCC [(1), [3-Butyl-3-(10-chloro-anthracen-9-ylmethyl)-ureido]-acetic acid ethyl ester]
- IC50 [1]: > 50 µM

Molecule: Cc1cccc2nc3cccc(C(=O)Nc4ccccc4C(=O)O)c3nc12 [(2), 2-[(9-Methyl-phenazine-1-carbonyl)-amino]-benzoic acid]
- IC50 [1]: 8.9 µM

Molecule: O=c1oc(Nc2ccc(Cl)cc2)nc2ccccc12 [(3), 2-(4-Chloro-phenylamino)-benzo[d][1,3]oxazin-4-one]
- IC50 [1]: 20.9 µM

Molecule: CCc1nc2ccccc2c(=O)n1CCc1cn(COC(=O)CCl)c2ccccc12 [(6), Chloroacetic acid 3-[2-(2-ethyl-4-oxo-4H-quinazolin-3-yl)ethyl]-indol-lylmethylester]
- IC50 [1]: 12.1 µM

Molecule: COC(=O)c1sc(-c2ccc(Cl)cc2)cc1NCc1ccccc1 [(7), 3-Benzylamino-5-(4-chlorophenyl)-4H-1λ^4-thiophene-2-carboxylic acid methyl ester]
- IC50 [1]: 16.9 µM

Molecule: COC(=O)c1cc(Oc2ccc(C(=O)OC)cc2NC(=O)c2cc(Cl)cc(Cl)c2)cc(C(=O)OC)c1 [(8), 5-[2-(3,5-Dichlorobenzoylamino)-4-methoxycarbonyl-phenoxy]-isophtahlic acid dimethyl ester]
- IC50 [1]: 9 µM

Molecule: COC(=O)c1cc(Oc2ccc(C(=O)OC)cc2NC(=O)NC2CCCCC2)cc(C(=O)OC)c1 [(9), 5-[2-(3-Cyclohexyl-ureido)-4-methoxycarbonyl-phenoxy]-isophtahlic acid dimethyl ester]
- IC50 [1]: 9.4 µM

Molecule: N[C@@H](Cc1ccccc1)C(=O)O [L-Phenylalanine, reference compound]
- inhibition at 10000 µM ([1]; compound concentration 10 mM, pH 7.5, 37° C., after saturation with PEP): 15%
- inhibition at 30000 µM ([1]; compound concentration 30 mM, pH 7.5, 37° C., after saturation with PEP): 72%
- increase of Hill coefficient nH [1, 4]: 1.4 folds
- increase of K0.5S (PEP) [1, 4]: 2.5 folds

Molecule: COc1ccc(OCCCCCC(=O)O)c(C=O)c1 [TB 88, 6-(2-formyl-4-methoxyphenoxy)hexanoic acid]
- inhibition at 500 µM [1, 2]: 16%
- inhibition at 2500 µM ([1]; compound concentration 2.5 mM, pH 7.5, 37° C., after saturation with PEP): 28%

Molecule: Cc1ccc(OCCCCCC(=O)O)c(C=O)c1 [TB 154, 6-(2-formyl-4-methylphenoxy)hexanoic acid]
- inhibition at 500 µM [1, 2]: 19%
- inhibition at 2000 µM [1, 3]: 28%
- melting point: 97 to 99 °C

Molecule: CCC(CCCCC(=O)O)Oc1ccc([N+](=O)[O-])cc1C=O (stereo not shown) [TDD 57, 6-(2-formyl-4-nitrophenoxy)octanoic Acid]
- inhibition at 500 µM [1, 2]: 36%
